According to patent publication US9643970B2, “Substituted imidazo [1,5-a]pyrazines as PDE9 inhibitors” (H Lundbeck A/S, priority 2012, dated 2017):
pIC50: −log10 of the molar value. Like-named read-outs stand apart in the source and are kept apart here.

Biological target: PDE9 (Homo sapiens, UniProt O76083)
Experiment: PDE9 inhibition assay
Type: biochemical
Procedure: Reactions are initiated by addition of the cyclic nucleotide substrate, and reactions are allowed to proceed for one hr at room temperature before being terminated through mixing with 15 uL 8 mg/mL yttrium silicate SPA beads (Amersham). […] IC50 values were calculated by non linear regression using XLfit (IDBS).

[1] = SPA assay, 10 nM 3H-cAMP, 1 hour incubation, read-out: IC50

PDE9, sequence (O76083 whole entry): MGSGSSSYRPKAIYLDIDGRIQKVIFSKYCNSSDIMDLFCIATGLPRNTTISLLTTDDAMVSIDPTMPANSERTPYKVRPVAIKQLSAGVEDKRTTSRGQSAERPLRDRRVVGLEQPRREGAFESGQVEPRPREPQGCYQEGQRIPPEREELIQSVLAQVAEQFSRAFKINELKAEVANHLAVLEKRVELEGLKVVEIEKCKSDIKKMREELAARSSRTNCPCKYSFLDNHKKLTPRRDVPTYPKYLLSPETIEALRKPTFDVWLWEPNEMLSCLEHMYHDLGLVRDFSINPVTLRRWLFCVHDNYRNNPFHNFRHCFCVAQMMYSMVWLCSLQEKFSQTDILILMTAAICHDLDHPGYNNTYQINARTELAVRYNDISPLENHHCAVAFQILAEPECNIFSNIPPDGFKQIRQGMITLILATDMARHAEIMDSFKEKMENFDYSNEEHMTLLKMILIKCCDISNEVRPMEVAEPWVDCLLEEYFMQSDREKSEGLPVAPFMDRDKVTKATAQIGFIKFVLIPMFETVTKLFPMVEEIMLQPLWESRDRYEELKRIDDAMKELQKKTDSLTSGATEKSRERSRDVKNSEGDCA

SMILES | pIC50 [1] | pIC50
CC(c1cn2c(-c3ccccc3)ncc2c(=O)[nH]1)N1CC(Oc2cccc(F)n2)C1 (stereo not shown) [Compound 27, 6-[1-[3-[(6-fluoro-2-pyridyl)oxy]azetidin-1-yl]ethyl]-3-phenyl-7h-imidazo[1,5-a]pyrazin-8-one] | 7.42 | 
CC1CN(Cc2ccc(F)cc2)CC1c1cn2c(-c3ccc(Cl)cc3)nc(Br)c2c(=O)[nH]1 (stereo not shown) [Compound 111, 1-bromo-3-(4-chlorophenyl)-6-[1-[(4-fluorophenyl)methyl]-4-methyl-pyrrolidin-3-yl]-7h-imidazo[1,5-a]pyrazin-8-one] | 7.13 | 
O=c1[nH]c(CN2CC(c3ccccn3)C2)cn2c(-c3ccc(F)cc3)ncc12 [Compound 61, 3-(4-fluorophenyl)-6-[[3-(2-pyridyl)azetidin-1-yl]methyl]-7h-imidazo[1,5-a]pyrazin-8-one] |  | 7.10
COc1ccc(C2CN(Cc3cn4c(C5CCCC5)ncc4c(=O)[nH]3)C2)cc1 [Compound 41, 3-cyclopentyl-6-[[3-(4-methoxyphenyl)azetidin-1-yl]methyl]-7h-imidazo[1,5-a]pyrazin-8-one] | 7.59 | 
O=c1[nH]c(CN2CC(Oc3ccc(OC(F)(F)F)cc3)C2)cn2c(-c3ccc(F)cc3)ncc12 [Compound 74, 3-(4-fluorophenyl)-6-[[3-[4-(trifluoromethoxy)phenoxy]azetidin-1-yl]methyl]-7h-imidazo[1,5-a]pyrazin-8-one] | 7.80 | 
O=c1[nH]c(CN2CCC(Nc3ccccc3)C2)cn2c(C3CCOCC3)ncc12 (stereo not shown) [Compound 66, 6-[(3-anilinopyrrolidin-1-yl)methyl]-3-tetrahydropyran-4-yl-7h-imidazo[1,5-a]pyrazin-8-one] | 7.82 | 
CC(C)OC1CN(C(C)c2cn3c(-c4ccc(F)cc4)ncc3c(=O)[nH]2)C1 (stereo not shown) [Compound 116, 3-(4-fluorophenyl)-6-[1-(3-isopropoxyazetidin-1-yl)ethyl]-7h-imidazo[1,5-a]pyrazin-8-one] |  | 7.66
O=c1[nH]c(CN2CC(Oc3ccccc3F)C2)cn2c(-c3ccccc3)ncc12 [Compound 33, 6-[[3-(2-fluorophenoxy)azetidin-1-yl]methyl]-3-phenyl-7h-imidazo[1,5-a]pyrazin-8-one] |  | 7.74
O=c1[nH]c(CN2CC(c3ccccn3)C2)cn2c(C3CCOCC3)ncc12 [Compound 62, 6-[[3-(2-pyridyl)azetidin-1-yl]methyl]-3-tetrahydropyran-4-yl-7h-imidazo[1,5-a]pyrazin-8-one] |  | 7.11
O=c1[nH]c(CN2CC(c3ccccc3)C2)cn2c(C3CCOCC3)ncc12 [Compound 68, 6-[(3-phenylazetidin-1-yl)methyl]-3-tetrahydropyran-4-yl-7h-imidazo[1,5-a]pyrazin-8-one] |  | 8.10
CC(c1cn2c(-c3ccccc3)ncc2c(=O)[nH]1)N1CC(Oc2cnccn2)C1 (stereo not shown) [Compound 15, 3-phenyl-6-[1-(3-pyrazin-2-yloxyazetidin-1-yl)ethyl]-7h-imidazo[1,5-a]pyrazin-8-one] | 7.40 | 
CC(c1cn2c(-c3ccccc3)ncc2c(=O)[nH]1)N1CC(Oc2ncccn2)C1 (stereo not shown) [Compound 7, 3-phenyl-6-[1-(3-pyrimidin-2-yloxyazetidin-1-yl)ethyl]-7h-imidazo[1,5-a]pyrazin-8-one] | 7.85 | 
CC(c1cn2c(C3CCCC3)ncc2c(=O)[nH]1)N1CC(c2ccc(N(C)C)cc2)C1 (stereo not shown) [Compound 59, 3-cyclopentyl-6-[1-[3-(4-dimethylaminophenyl)azetidin-1-yl]ethyl]-7h-imidazo[1,5-a]pyrazin-8-one] |  | 7.24
Cc1ccnc(C2CN(C(C)c3cn4c(-c5ccccc5)ncc4c(=O)[nH]3)C2)c1 (stereo not shown) [Compound 29, 6-[1-[3-(4-methyl-2-pyridyl)azetidin-1-yl]ethyl]-3-phenyl-7h-imidazo[1,5-a]pyrazin-8-one] |  | 7.70
N#Cc1cccc(OC2CN(Cc3cn4c(-c5ccc(F)cc5)ncc4c(=O)[nH]3)C2)c1 [Compound 93, 3-[1-[[3-(4-fluorophenyl)-8-oxo-7h-imidazo[1,5-a]pyrazin-6-yl]methyl]azetidin-3-yl]oxybenzonitrile] | 7.74 | 
O=c1[nH]c(CN2CC(c3ccccn3)C2)cn2c(-c3ccccc3)ncc12 [Compound 37, 3-phenyl-6-[[3-(2-pyridyl)azetidin-1-yl]methyl]-7h-imidazo[1,5-a]pyrazin-8-one] | 7.54 | 
COC1CN(Cc2cn3c(-c4ccccc4)ncc3c(=O)[nH]2)C1 [Compound 3, 6-[(3-methoxyazetidin-1-yl)methyl]-3-phenyl-7h-imidazo[1,5-a]pyrazin-8-one] | 7.05 | 
O=c1[nH]c(CN2CC(Oc3cnc4ccccc4n3)C2)cn2c(C3CCOCC3)ncc12 [Compound 72, 6-[(3-quinoxalin-2-yloxyazetidin-1-yl)methyl]-3-tetrahydropyran-4-yl-7h-imidazo[1,5-a]pyrazin-8-one] | 6.86 | 
CC(c1cn2c(-c3ccccc3)ncc2c(=O)[nH]1)N1CC(c2ncccn2)C1 (stereo not shown) [Compound 36, 3-phenyl-6-[1-(3-pyrimidin-2-ylazetidin-1-yl)ethyl]-7h-imidazo[1,5-a]pyrazin-8-one] | 7.10 | 

SMILES | pIC50 [1] | pIC50
CC1CN(Cc2ccccn2)CC1c1cn2c(C3CCOCC3)ncc2c(=O)[nH]1 (stereo not shown) [Compound 81, 6-[4-methyl-1-(2-pyridylmethyl)pyrrolidin-3-yl]-3-tetrahydropyran-4-yl-7h-imidazo[1,5-a]pyrazin-8-one] | 7.72 | 
O=c1[nH]c(CN2CC(OCc3ccccc3)C2)cn2c(C3CCCC3)ncc12 [Compound 56, 6-[(3-benzyloxyazetidin-1-yl)methyl]-3-cyclopentyl-7h-imidazo[1,5-a]pyrazin-8-one] |  | 7.30
CC(c1cn2c(C3CCCC3)ncc2c(=O)[nH]1)N1CC(Oc2ccccc2F)C1 (stereo not shown) [Compound 52, 3-cyclopentyl-6-[1-[3-(2-fluorophenoxy)azetidin-1-yl]ethyl]-7h-imidazo[1,5-a]pyrazin-8-one] | 7.31 | 
O=c1[nH]c(CN2CC(c3ccc(C(F)(F)F)cn3)C2)cn2c(C3CCOCC3)ncc12 [Compound 70, 3-tetrahydropyran-4-yl-6-[[3-[5-(trifluoromethyl)-2-pyridyl]azetidin-1-yl]methyl]-7h-imidazo[1,5-a]pyrazin-8-one] |  | 8.00
COC1CN(C(C)c2cn3c(-c4ccc(F)cc4)ncc3c(=O)[nH]2)C1 (stereo not shown) [Compound 1, 3-(4-fluorophenyl)-6-[1-(3-methoxyazetidin-1-yl)ethyl]-7h-imidazo[1,5-a]pyrazin-8-one] | 7.14 | 
COC1CN(C(C)c2cn3c(-c4ccccc4)ncc3c(=O)[nH]2)C1 (stereo not shown) [Compound 20, 6-[1-(3-methoxyazetidin-1-yl)ethyl]-3-phenyl-7h-imidazo[1,5-a]pyrazin-8-one] | 7.77 | 
CCc1ccc(C2CN(Cc3cn4c(-c5ccccc5)ncc4c(=O)[nH]3)C2)cc1 [Compound 11, 6-[[3-(4-ethylphenyl)azetidin-1-yl]methyl]-3-phenyl-7h-imidazo[1,5-a]pyrazin-8-one] |  | 6.90
N#Cc1cccc(C2CN(Cc3cn4c(C5CCOCC5)ncc4c(=O)[nH]3)C2)c1 [Compound 107, 3-[1-[(8-oxo-3-tetrahydropyran-4-yl-7h-imidazo[1,5-a]pyrazin-6-yl)methyl]azetidin-3-yl]benzonitrile] | 7.46 | 
O=c1[nH]c(CN2CC(Oc3cccc(C(F)(F)F)c3)C2)cn2c(-c3ccc(F)cc3)ncc12 [Compound 95, 3-(4-fluorophenyl)-6-[[3-[3-(trifluoromethyl)phenoxy]azetidin-1-yl]methyl]-7h-imidazo[1,5-a]pyrazin-8-one] |  | 7.01
CC1CN(Cc2ccccn2)CC1c1cn2c(-c3ccccc3)ncc2c(=O)[nH]1 (stereo not shown) [Compound 43, 6-[4-methyl-1-(2-pyridylmethyl)pyrrolidin-3-yl]-3-phenyl-7h-imidazo[1,5-a]pyrazin-8-one] | 7.85 | 
CC(c1cn2c(-c3ccccc3)ncc2c(=O)[nH]1)N1CC(Oc2ccccc2F)C1 (stereo not shown) [Compound 32, 6-[1-[3-(2-fluorophenoxy)azetidin-1-yl]ethyl]-3-phenyl-7h-imidazo[1,5-a]pyrazin-8-one] |  | 7.14
COc1ccc(CN2CC(C)C(c3cn4c(C5CCOCC5)ncc4c(=O)[nH]3)C2)cn1 (stereo not shown) [Compound 101, 6-[1-[(6-methoxy-3-pyridyl)methyl]-4-methyl-pyrrolidin-3-yl]-3-tetrahydropyran-4-yl-7h-imidazo[1,5-a]pyrazin-8-one] | 7.74 | 
CC1CN(Cc2ccc3nccnc3c2)CC1c1cn2c(C3CCOCC3)ncc2c(=O)[nH]1 (stereo not shown) [Compound 97, 6-[4-methyl-1-(quinoxalin-6-ylmethyl)pyrrolidin-3-yl]-3-tetrahydropyran-4-yl-7h-imidazo[1,5-a]pyrazin-8-one] | 8.40 | 
N#Cc1ccc(OC2CN(Cc3cn4c(C5CCOCC5)ncc4c(=O)[nH]3)C2)cc1 [Compound 80, 4-[1-[(8-oxo-3-tetrahydropyran-4-yl-7h-imidazo[1,5-a]pyrazin-6-yl)methyl]azetidin-3-yl]oxybenzonitrile] | 7.74 | 
O=c1[nH]c(CN2CC(c3ccc(F)cc3)C2)cn2c(-c3ccccc3)ncc12 [Compound 19, 6-[[3-(4-fluorophenyl)azetidin-1-yl]methyl]-3-phenyl-7h-imidazo[1,5-a]pyrazin-8-one] |  | 7.16
N#Cc1ccc(C2CN(Cc3cn4c(-c5ccccc5)ncc4c(=O)[nH]3)C2)cc1 [Compound 35, 4-[1-[(8-oxo-3-phenyl-7h-imidazo[1,5-a]pyrazin-6-yl)methyl]azetidin-3-yl]benzonitrile] | 7.31 | 
CC1CN(Cc2ccc(F)cc2)CC1c1cn2c(-c3ccc(OC(F)(F)F)cc3)ncc2c(=O)[nH]1 (stereo not shown) [Compound 119, 6-[1-[(4-fluorophenyl)methyl]-4-methyl-pyrrolidin-3-yl]-3-[4-(trifluoromethoxy)phenyl]-7h-imidazo[1,5-a]pyrazin-8-one] | 6.72 | 
CC1CN(Cc2ncccn2)CC1c1cn2c(C3CCOCC3)ncc2c(=O)[nH]1 (stereo not shown) [Compound 90, 6-[4-methyl-1-(pyrimidin-2-ylmethyl)pyrrolidin-3-yl]-3-tetrahydropyran-4-yl-7h-imidazo[1,5-a]pyrazin-8-one] | 7.72 | 
